# Experimental data published in US9995734B2, “Human T cell line assay for evaluating the immunologic identity of glatiramer acetate preparations” (Mylan Inc., priority 2013, dated 2018).
# Tests used:
# [1] = system: Donor 3 GMA Responsive T Cells; assay: Cytokine multiplex assay, Donor 3 GMA responsive T cells; type: cell-based, human; conditions: culture medium
# Protocol: (§1) The concentration of multiple cytokines was measured simultaneously using FlowCytoMix™ kits (eBioscience, San Diego Calif.). These are fluorescent bead based assays consisting of beads conjugated to anti cytokine antibodies. Beads specific for each cytokine are distinguished by size and fluorescence at 670 run. Cytokine bound to each bead is detected using a phycoerythrin conjugated antibody so that the fluorescence at 585 nm reflects the concentration of cytokine in the sample. Two kits were utilized which measured different cytokine panels. The TH1/TH2 kit measures IFN-γ, IL-1β, IL-2, IL-4, IL-5, IL-6, IL-8, IL-10, IL-12p70, TNF-α (TNF) and TNF-β (LT). The TH1/TH2/TH9/TH17/TH22 kit measures […], IL-1β, IL-2, IL-4, IL-5, IL-6, IL-9, IL-10, IL-12p70, IL-13, IL-17, IL-22, and TNF-α (TNF). Both kits were used following the manufacturer's instructions.
# [2] = system: Donor 4 COP Responsive T-Cell Lines; assay: Multiplex bead cytokine assay (FlowCytomix), Donor 4 COP responsive T-cell lines; type: cell-based, human; design: IFN-γ / 1L-9 / IL-22 / IL-13: unit not given here
# Protocol: as §1
# On Day 23 the positive wells (cell lines listed in Table 26) were transferred to a 24-well plate and restimulated with 10 μg/mL COP in the presence of mitomycin-treated autologous PBMC. IL-2 was added at Day 24. On Day 31 (after four rounds of restimulation) ten lines were restimulated with 10 μg/mL COP to confirm antigen reactivity by a cytokine secretion assay. T-cells were added at 2×10^4 cells/well in 96-well plates in X-VIVO 15 medium. Each line was separately stimulated with 10 μg/mL GMA, and 10 μg/mL COP in the presence of (2×10^5 cells/well, i.e., 1×10^6 cells/mL) mitomycin-treated autologous PBMC. Culture medium was collected after 20-24 hours for cytokine assay (FlowCytomix multiplex bead assay). The supernatants were tested in triplicate for IL-12 p70, IFN-γ, IL-2, IL-10, IL-6, IL-4, IL-5, TNF-α, and TNF-β secretion. […] Secretion of IL-2, 11-10, and IL-4 varied among the lines. All samples also secreted IL-8 (data not shown).
# Culture medium from each of two Donor 4 cell lines was assayed for an extended panel of cytokines, showing production of IL-13 and IL-22 (Table 32).
# [3] = T-cell line 1H9, 10 μg/mL, Day 31, medium after 20-24 hours
# [4] = T-cell line 1H11, 10 μg/mL, Day 31, medium after 20-24 hours
# [5] = T-cell line 205-1B4, extended cytokine multiplex assay
# [6] = T-cell line 205-1B7, 10 μg/mL, Day 31, medium after 20-24 hours
# [7] = T-cell line 205-1C4, 10 μg/mL, Day 31, medium after 20-24 hours
# [8] = T-cell line 205-1F4, extended cytokine multiplex assay
# [9] = T-cell line 205-1F5, 10 μg/mL, Day 31, medium after 20-24 hours
# [10] = T-cell line 205-1G3, 10 μg/mL, Day 31, medium after 20-24 hours
# [11] = T-cell line 205-1H5, 10 μg/mL, Day 31, medium after 20-24 hours
# [12] = T-cell line 205-1H7, 10 μg/mL, Day 31, medium after 20-24 hours
substance,measurement,setting,value
glatiramer acetate [COP],IFN-γ,[1]; T-cell line 165-B5G,190 pg/mL
same,IL-4,[1]; T-cell line 165-B5G,17 pg/mL
same,IL-5,[1]; T-cell line 165-B5G,374 pg/mL
same,IL-13,[1]; T-cell line 165-B5G,2927 pg/mL
same,IL-22,[1]; T-cell line 165-B5G,106 pg/mL
same,IFN-γ,[1]; T-cell line 165-D8G,115 pg/mL
same,IL-4,[1]; T-cell line 165-D8G,14 pg/mL
same,IL-5,[1]; T-cell line 165-D8G,309 pg/mL
same,IL-13,[1]; T-cell line 165-D8G,3121 pg/mL
same,IL-22,[1]; T-cell line 165-D8G,365 pg/mL
same,IFN-γ,[1]; T-cell line 165-E9G,638 pg/mL
same,IL-4,[1]; T-cell line 165-E9G,12 pg/mL
same,IL-5,[1]; T-cell line 165-E9G,208 pg/mL
same,IL-13,[1]; T-cell line 165-E9G,1232 pg/mL
same,IL-22,[1]; T-cell line 165-E9G,192 pg/mL
same,IFN-γ,[1]; T-cell line 165-F8G,771 pg/mL
same,IL-4,[1]; T-cell line 165-F8G,0 pg/mL
same,IL-5,[1]; T-cell line 165-F8G,297 pg/mL
same,IL-13,[1]; T-cell line 165-F8G,1017 pg/mL
same,IL-22,[1]; T-cell line 165-F8G,198 pg/mL
same,IFN-γ,[1]; T-cell line 165-F10G,1165 pg/mL
same,IL-4,[1]; T-cell line 165-F10G,122 pg/mL
same,IL-5,[1]; T-cell line 165-F10G,2586 pg/mL
same,IL-13,[1]; T-cell line 165-F10G,11285 pg/mL
same,IL-22,[1]; T-cell line 165-F10G,686 pg/mL
same,IFN-γ,[1]; T-cell line 165-H11G,724 pg/mL
same,IL-4,[1]; T-cell line 165-H11G,9 pg/mL
same,IL-5,[1]; T-cell line 165-H11G,321 pg/mL
same,IL-13,[1]; T-cell line 165-H11G,1095 pg/mL
same,IL-22,[1]; T-cell line 165-H11G,190 pg/mL
same,IFN-y,[2]; [3],419.21 pg/mL
same,IL-2,[2]; [3],<=0 pg/mL
same,IL-4,[2]; [3],<=0 pg/mL
same,IL-5,[2]; [3],<=0 pg/mL
same,IL-6,[2]; [3],<=0 pg/mL
same,IL-10,[2]; [3],<=0 pg/mL
same,IL-12 p70,[2]; [3],<=0 pg/mL
same,TNF-α,[2]; [3],159.6 pg/mL
same,TNF-β,[2]; [3],<=0 pg/mL
same,IFN-y,[2]; [4],1016.21 pg/mL
same,IL-2,[2]; [4],44.94 pg/mL
same,IL-4,[2]; [4],2.09 pg/mL
same,IL-5,[2]; [4],3665.58 pg/mL
same,IL-6,[2]; [4],20.11 pg/mL
same,IL-10,[2]; [4],143.84 pg/mL
same,IL-12 p70,[2]; [4],3.68 pg/mL
same,TNF-α,[2]; [4],754.13 pg/mL
same,TNF-β,[2]; [4],1.55 pg/mL
same,1L-9,[2]; [5],29
same,IFN-γ,[2]; [5],726
same,IL-2,[2]; [5],0
same,IL-4,[2]; [5],174
same,IL-5,[2]; [5],3660
same,IL-6,[2]; [5],114
same,IL-10,[2]; [5],32
same,IL-13,[2]; [5],19288
same,IL-22,[2]; [5],668
same,TNF-α,[2]; [5],1336
same,IFN-y,[2]; [6],935.78 pg/mL
same,IL-2,[2]; [6],27.99 pg/mL
same,IL-4,[2]; [6],200.19 pg/mL
same,IL-5,[2]; [6],7199.83 pg/mL
same,IL-6,[2]; [6],195.27 pg/mL
same,IL-10,[2]; [6],210.01 pg/mL
same,IL-12 p70,[2]; [6],18.39 pg/mL
same,TNF-α,[2]; [6],1286.09 pg/mL
same,TNF-β,[2]; [6],244.68 pg/mL
same,IFN-y,[2]; [7],1212.03 pg/mL
same,IL-2,[2]; [7],478.51 pg/mL
same,IL-4,[2]; [7],199.97 pg/mL
same,IL-5,[2]; [7],6457.14 pg/mL
same,IL-6,[2]; [7],159.24 pg/mL
same,IL-10,[2]; [7],50.31 pg/mL
same,IL-12 p70,[2]; [7],51.14 pg/mL
same,TNF-α,[2]; [7],1529.22 pg/mL
same,TNF-β,[2]; [7],69.07 pg/mL
same,1L-9,[2]; [8],10
same,IFN-γ,[2]; [8],1393
same,IL-2,[2]; [8],110
same,IL-4,[2]; [8],10
same,IL-5,[2]; [8],1440
same,IL-6,[2]; [8],77
same,IL-10,[2]; [8],0
same,IL-13,[2]; [8],4502
same,IL-22,[2]; [8],168
same,TNF-α,[2]; [8],616
same,IFN-y,[2]; [9],452.76 pg/mL
same,IL-2,[2]; [9],205.85 pg/mL
same,IL-4,[2]; [9],293.46 pg/mL
same,IL-5,[2]; [9],13727.89 pg/mL
same,IL-6,[2]; [9],318.25 pg/mL
same,IL-10,[2]; [9],323.52 pg/mL
same,IL-12 p70,[2]; [9],55.94 pg/mL
same,TNF-α,[2]; [9],833.39 pg/mL
same,TNF-β,[2]; [9],278.68 pg/mL
same,IFN-y,[2]; [10],211.16 pg/mL
same,IL-2,[2]; [10],10.89 pg/mL
same,IL-4,[2]; [10],<=0 pg/mL
same,IL-5,[2]; [10],91.11 pg/mL
same,IL-6,[2]; [10],11.79 pg/mL
same,IL-10,[2]; [10],<=0 pg/mL
same,IL-12 p70,[2]; [10],<=0 pg/mL
same,TNF-α,[2]; [10],38.56 pg/mL
same,TNF-β,[2]; [10],<=0 pg/mL
same,IFN-y,[2]; [11],1149.77 pg/mL
same,IL-2,[2]; [11],15.14 pg/mL
same,IL-4,[2]; [11],79.67 pg/mL
same,IL-5,[2]; [11],3106.45 pg/mL
same,IL-6,[2]; [11],57.31 pg/mL
same,IL-10,[2]; [11],28.45 pg/mL
same,IL-12 p70,[2]; [11],7.96 pg/mL
same,TNF-α,[2]; [11],1260.75 pg/mL
same,TNF-β,[2]; [11],88.62 pg/mL
same,IFN-y,[2]; [12],1617.25 pg/mL
same,IL-2,[2]; [12],351.63 pg/mL
same,IL-4,[2]; [12],90.37 pg/mL
same,IL-5,[2]; [12],101.71 pg/mL
same,IL-6,[2]; [12],69.44 pg/mL
same,IL-10,[2]; [12],10.06 pg/mL
same,IL-12 p70,[2]; [12],11.11 pg/mL
same,TNF-α,[2]; [12],1924.81 pg/mL
same,TNF-β,[2]; [12],49.17 pg/mL
same,cytokine secretion,"[2]; most tested Donor 4 cell lines, Day 31, 10 μg/mL, 20-24 hours","secreted IFN-γ, IL-5, and TNF-α"
